Measurements reported in patent US12590091B2, “1H-pyrrolo[3,2-C]pyridine and 1H-pyrrolo[2,3-C]pyridine derivatives as TLR9 inhibitors for the treatment of fibrosis” (BRISTOL-MYERS SQUIBB COMPANY, priority 2020, dated 2026).

What was measured:
human TLR8 = target: T1, human TLR8 (Homo sapiens, UniProt Q9NR97); assay: TLR8 inhibition reporter assay (HEK-Blue cells, SEAP reporter); type: cell-based; conditions: HEK-Blue cells overexpressing human TLR8, stimulated with R848 15.9 μM, 22 hour incubation
T1 construct: host or cells: HEK-Blue cells
T1 sequence (Q9NR97 27-1041): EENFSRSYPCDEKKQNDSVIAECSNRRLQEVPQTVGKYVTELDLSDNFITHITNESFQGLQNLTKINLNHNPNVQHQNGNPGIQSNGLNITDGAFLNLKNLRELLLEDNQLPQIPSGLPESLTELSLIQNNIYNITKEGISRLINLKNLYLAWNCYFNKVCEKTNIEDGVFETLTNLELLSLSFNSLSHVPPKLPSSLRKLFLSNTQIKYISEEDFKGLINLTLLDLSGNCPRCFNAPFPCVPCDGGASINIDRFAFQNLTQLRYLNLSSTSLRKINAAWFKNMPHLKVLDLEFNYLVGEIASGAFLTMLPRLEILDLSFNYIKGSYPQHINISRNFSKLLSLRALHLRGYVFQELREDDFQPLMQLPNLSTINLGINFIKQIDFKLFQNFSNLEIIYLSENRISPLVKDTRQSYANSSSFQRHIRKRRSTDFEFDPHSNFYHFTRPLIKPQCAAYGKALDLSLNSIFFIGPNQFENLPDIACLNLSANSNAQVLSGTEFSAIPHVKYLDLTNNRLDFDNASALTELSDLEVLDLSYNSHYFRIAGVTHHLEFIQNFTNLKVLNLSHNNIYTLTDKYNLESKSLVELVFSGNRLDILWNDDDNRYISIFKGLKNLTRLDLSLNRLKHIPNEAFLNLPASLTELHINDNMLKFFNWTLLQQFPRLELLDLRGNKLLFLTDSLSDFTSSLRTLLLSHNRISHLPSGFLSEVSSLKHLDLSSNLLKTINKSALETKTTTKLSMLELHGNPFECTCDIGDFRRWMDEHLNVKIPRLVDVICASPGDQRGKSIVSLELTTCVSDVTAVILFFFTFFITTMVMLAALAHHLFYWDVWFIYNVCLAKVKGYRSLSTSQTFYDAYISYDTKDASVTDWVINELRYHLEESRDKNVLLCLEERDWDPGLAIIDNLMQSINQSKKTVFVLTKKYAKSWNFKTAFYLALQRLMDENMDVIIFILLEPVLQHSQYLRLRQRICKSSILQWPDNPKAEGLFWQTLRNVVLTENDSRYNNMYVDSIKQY
How it was run: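 Dose–response from 0.05 nM to 50 μM was run in HEK-Blue human TLR7, TLR8 and TLR9 reporter cells. After 30 min at room temperature with compound, ligand was added (TLR7 gardiquimod 7.5 μM; TLR8 R848 15.9 μM; TLR9 ODN2006 5 nM) and SEAP measured next day, at 22 h.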

human TLR9 = target: T2, human TLR9 (Homo sapiens, UniProt Q9NR96); assay: TLR9 inhibition reporter assay (HEK-Blue cells, SEAP reporter); type: cell-based; conditions: HEK-Blue cells overexpressing human TLR9, stimulated with ODN2006 5 nM, 22 hour incubation
T2 construct: host or cells: HEK-Blue cells
T2 sequence (Q9NR96 26-1032): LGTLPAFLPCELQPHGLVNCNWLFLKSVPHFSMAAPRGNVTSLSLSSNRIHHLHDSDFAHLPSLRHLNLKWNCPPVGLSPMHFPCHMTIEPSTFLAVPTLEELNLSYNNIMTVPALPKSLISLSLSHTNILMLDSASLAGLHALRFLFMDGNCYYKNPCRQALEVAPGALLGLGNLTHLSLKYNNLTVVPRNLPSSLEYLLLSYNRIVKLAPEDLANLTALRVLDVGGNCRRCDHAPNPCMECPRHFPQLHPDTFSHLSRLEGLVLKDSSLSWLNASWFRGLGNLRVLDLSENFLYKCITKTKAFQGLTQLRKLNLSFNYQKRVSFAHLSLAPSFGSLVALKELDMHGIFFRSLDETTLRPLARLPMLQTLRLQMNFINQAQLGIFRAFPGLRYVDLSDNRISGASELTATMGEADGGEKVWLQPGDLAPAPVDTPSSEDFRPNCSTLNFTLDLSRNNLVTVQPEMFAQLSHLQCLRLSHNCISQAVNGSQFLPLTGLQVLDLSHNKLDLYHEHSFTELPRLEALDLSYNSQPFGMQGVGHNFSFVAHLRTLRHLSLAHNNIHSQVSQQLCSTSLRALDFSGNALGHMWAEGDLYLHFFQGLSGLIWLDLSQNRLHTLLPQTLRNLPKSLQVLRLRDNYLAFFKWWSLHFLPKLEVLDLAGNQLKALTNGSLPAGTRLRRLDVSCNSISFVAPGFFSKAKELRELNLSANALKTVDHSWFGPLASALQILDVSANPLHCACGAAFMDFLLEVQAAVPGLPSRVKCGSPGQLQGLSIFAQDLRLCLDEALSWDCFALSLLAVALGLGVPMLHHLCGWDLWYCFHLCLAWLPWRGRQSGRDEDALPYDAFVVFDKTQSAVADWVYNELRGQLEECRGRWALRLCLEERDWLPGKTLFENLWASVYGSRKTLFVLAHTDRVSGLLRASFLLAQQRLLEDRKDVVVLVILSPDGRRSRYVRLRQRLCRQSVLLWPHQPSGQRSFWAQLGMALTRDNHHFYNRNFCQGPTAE
How it was run: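 Compound dose-response (0.05 nM–50 μM final) on agonist-stimulated human TLR9 HEK-Blue cells, 25,000/well, incubated 22 h at 37 °C, 5% CO2. Readout was secreted alkaline phosphatase under an IFN-β minimal promoter with NF-κB/AP-1 sites; inhibition expressed relative to DMSO and reference-inhibitor controls.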

Compound	IC50 (human TLR8)	IC50 (human TLR9)
Cc1nc(-c2ccc(C3(O)CCN(CC(C)C)CC3)c(F)c2)cc2c1cc(-c1ccc(S(C)(=O)=O)cc1)n2C [Example 90, 4-(4-(1,4-dimethyl-2-(4-(methylsulfonyl)phenyl)-1H-pyrrolo[3,2-c]pyridin-6-yl)-2-fluorophenyl)-1-isobutylpiperidin-4-ol]	22.1 µM	0.141 µM
COc1ccc(-c2cc3cnc(C4CCN(Cc5ccc(C)nc5)CC4)cc3n2C)cc1OC [Example 8, 2-(3,4-Dimethoxyphenyl)-1-methyl-6-(1-((6-methylpyridin-3-yl)methyl)piperidin-4-yl)-1H-pyrrolo[3,2-c]pyridine]	25.9 µM	0.058 µM
Cc1nc(-c2cc(F)c(N3CCN(C4CCOCC4)CC3)c(F)c2)cc2c1cc(-c1ccc(S(C)(=O)=O)cc1)n2C [Example 89, 6-(3,5-difluoro-4-(4-(tetrahydro-2H-pyran-4-yl)piperazin-1-yl)phenyl)-1,4-dimethyl-2-(4-(methylsulfonyl)phenyl)-1H-pyrrolo[3,2-c]pyridine]	> 50 µM	0.226 µM
CCOC(=O)N1CCC(N2CCC(c3cc4c(cn3)cc(-c3ccc(OC)c(OC)c3)n4C)CC2)CC1 [Example 7, Ethyl 4-(2-(3,4-dimethoxyphenyl)-1-methyl-1H-pyrrolo[3,2-c]pyridin-6-yl)-[1,4′-bipiperidine]-1′-carboxylate]	5.2 µM	0.111 µM
Cc1nc(-c2ccc(C3(O)CC4CCC(C3)N4CC(C)C)c(F)c2)cc2c1cc(-c1ccc(S(C)(=O)=O)cc1)n2C [Example 91, (1R,3r,5S)-3-(4-(1,4-dimethyl-2-(4-(methylsulfonyl)phenyl)-1H-pyrrolo[3,2-c]pyridin-6-yl)-2-fluorophenyl)-8-isobutyl-8-azabicyclo[3.2.1]octan-3-ol]	1.3 µM	0.735 µM
COCCN1CCC(O)(c2ccc(-c3cc4c(cc(-c5ccc(S(C)(=O)=O)cc5)n4C)c(C)n3)cc2F)CC1 [Example 92, 4-(4-(1,4-dimethyl-2-(4-(methylsulfonyl)phenyl)-1H-pyrrolo[3,2-c]pyridin-6-yl)-2-fluorophenyl)-1-(2-methoxyethyl)piperidin-4-ol]	> 50 µM	0.109 µM

Other lines, results leading:

IC50 (human TLR8)	IC50 (human TLR9)	Compound
4.1 µM	0.162 µM	Cc1nc(-c2cc(F)c(C3(O)CCN(C4CC4)CC3)cc2F)cc2c1cc(-c1ccc(S(C)(=O)=O)cc1)n2C [Example 96, 1-cyclopropyl-4-(4-(1,4-dimethyl-2-(4-(methylsulfonyl)phenyl)-1H-pyrrolo[3,2-c]pyridin-6-yl)-2,5-difluorophenyl)piperidin-4-ol]
2.5 µM	0.143 µM	Cc1nc(-c2cc(F)c(C3(O)CCN(CC(C)C)CC3)cc2F)cc2c1cc(-c1ccc(S(C)(=O)=O)cc1)n2C [Example 94, 4-(4-(1,4-dimethyl-2-(4-(methylsulfonyl)phenyl)-1H-pyrrolo[3,2-c]pyridin-6-yl)-2,5-difluorophenyl)-1-isobutylpiperidin-4-ol]
5.3 µM	0.202 µM	Cc1nc(-c2cc(F)c(N3CCN4CCCC4C3)cc2F)cc2c1cc(-c1ccc(S(C)(=O)=O)cc1)n2C (stereo not drawn) [Example 97, 6-(2,5-difluoro-4-(hexahydropyrrolo[1,2-a]pyrazin-2(1H)-yl)phenyl)-1,4-dimethyl-2-(4-(methylsulfonyl)phenyl)-1H-pyrrolo[3,2-c]pyridine]
> 50 µM	1.43 µM	Cc1nc(-c2ccc(C3(O)CCN(C4CC4)CC3)c(F)c2)cc2c1cc(-c1ccc(S(C)(=O)=O)cc1)n2C [Example 93, 1-cyclopropyl-4-(4-(1,4-dimethyl-2-(4-(methylsulfonyl)phenyl)-1H-pyrrolo[3,2-c]pyridin-6-yl)-2-fluorophenyl)piperidin-4-ol]
2.7 µM	0.537 µM	COCCN1CCC(O)(c2cc(F)c(-c3cc4c(cc(-c5ccc(S(C)(=O)=O)cc5)n4C)c(C)n3)cc2F)CC1 [Example 95, 4-(4-(1,4-dimethyl-2-(4-(methylsulfonyl)phenyl)-1H-pyrrolo[3,2-c]pyridin-6-yl)-2,5-difluorophenyl)-1-(2-methoxyethyl)piperidin-4-ol]
> 50 µM	0.212 µM	Cc1nc(-c2cc(F)c(N3CCN4CCCC4C3)c(F)c2)cc2c1cc(-c1ccc(S(C)(=O)=O)cc1)n2C (stereo not drawn) [Example 98, 6-(3,5-difluoro-4-(hexahydropyrrolo[1,2-a]pyrazin-2(1H)-yl)phenyl)-1,4-dimethyl-2-(4-(methylsulfonyl)phenyl)-1H-pyrrolo[3,2-c]pyridine]
